Series [1] relates to sperm output. Put plainly: Cauda epididymal sperm count after multiple doses of CP. The series is classed as in vivo, mouse. Particulars: 28 days; HNG 10 mg/kg BW daily SC; CP 150 mg/kg BW IP, 6 doses at 5-day intervals. The method, then:
The objective of this study was to investigate whether HNG has protective effect on sperm output after multiple doses of CP in mice. Thirty adult male mice (C57BL/6J) were randomized into 4 groups: 1) 5 as control; 2) 5 received daily subcutaneously injection of HNG (10 mg/kg BW); 3) 10 were given 6 doses of CP (150 mg/kg BW) intraperitoneally at 5-day intervals; 4) 10 received both HNG and CP. All mice were killed at 28 days. Plasma HNG and IGF-1 levels were measured by ELISAs. The cauda epididymal sperm count was performed using a hemocytometer.

Series [2] concerns IGF-1. Put plainly: Plasma IGF-1 in mice bearing metastatic lung melanomas. In kind it is in vivo, mouse. The note with it: 14 days; HNG 5 mg/kg/day IP, CP 200 mg/kg IP single injection. The source says: These preliminary data support a concept that HN is a caloric restriction mimetic, and its cytotoxic effects in cancer may be mediated by lowering IGF-1 without increasing GH and insulin.

The subject of series [3] is testosterone. Particulars: with or without EDS pre-treatment.

We go through 1 molecule from patent US9937227B2, “Humanin, analogs and cancer treatment methods and uses thereof” (LOS ANGELES BIOMEDICAL RESEARCH INSTITUTE AT HARBOR-UCLA …, priority 2014, dated 2018).

Structures are written as SMILES.

As for `O=P1(N(CCCl)CCCl)NCCCO1` (stereo not shown) [CP, cyclophosphamide monohydrate], the epididymal sperm counts in series [1] is given as 0.5±0.1 ×10^6/mg. Besides, in series [2], the “plasma IGF-1 levels” value was “modestly suppressed”. In series [3], the intratesticular testosterone levels entry was “no significant effects” and the serum testosterone levels result is listed as “no significant effects”.
